The values below come from PubChem BioAssay AID330 (DTP/NCI, 2004).

The subject of this experiment is P388 leukemia ip, CD2F1 mice, survival T/C. Briefly: NCI In Vivo Anticancer Drug Screen. Data for tumor model P388 Leukemia (intraperitoneal) in CD2F1 (CDF1) mice. The note with it: endpoint: median survival time, higher = longer survival. In a few lines:
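Mice carrying the transplanted tumor received test compound or vehicle. Survival was recorded in each group, and the value is the treated-group measurement divided by that of the vehicle-treated control group.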

Where “and” joins values, the source holds several entries; their conditions need not be identical. Equal values may be shown once. Toxic doses and inconclusive results are not listed.

For `COc1cc([C@@H]2c3cc4c(cc3[C@@H](OC3OC5COC(C)OC5C(O)C3O)[C@H]3COC(=O)[C@H]23)OCO4)cc(OC)c1O` (some centres not stated), the T/C by setting is: (dose: 1.0 mg/kg/injection, schedule: Q01DX009 (ip), vehicle: saline) 181 % of control; (dose: 2.0 mg/kg/injection, schedule: Q01DX009 (ip), vehicle: saline) 183 % of control and 217 % of control; (dose: 4.0 mg/kg/injection, schedule: Q01DX001 (ip), vehicle: saline with Tween-80) 153 % of control; (dose: 4.0 mg/kg/injection, schedule: Q01DX009 (ip), vehicle: saline) 241 % of control and 300 % of control; (dose: 5.0 mg/kg/injection, schedule: Q04DX003 (ip), vehicle: saline with Tween-80) 122 % of control; (dose: 6.24 mg/kg/injection, schedule: Q04DX003 (ip), vehicle: water) 177 % of control. The T/C is 178 % of control and 219 % of control (dose: 6.48 mg/kg/injection, schedule: Q04DX003 (ip), vehicle: water); 212 % of control (dose: 7.78 mg/kg/injection, schedule: Q04DX003 (ip), vehicle: water); 164 % of control (dose: 8.0 mg/kg/injection, schedule: Q01DX001 (ip), vehicle: saline with Tween-80); 180 % of control (dose: 8.0 mg/kg/injection, schedule: Q01DX001 (ip), vehicle: saline); 162 % of control and 168 % of control (dose: 8.0 mg/kg/injection, schedule: Q01DX001 (ip), vehicle: water); 207 % of control (dose: 8.0 mg/kg/injection, schedule: Q08DX002 (ip), vehicle: saline). For the same compound, the T/C is, setting by setting: (dose: 10.0 mg/kg/injection, schedule: Q04DX002 (ip), vehicle: suspension in saline) 162 % of control; (dose: 10.0 mg/kg/injection, schedule: Q04DX003 (ip), vehicle: saline with Tween-80) 174 % of control and 190 % of control; (dose: 10.4 mg/kg/injection, schedule: Q04DX003 (ip), vehicle: clinical formulation) 247 % of control; (dose: 10.4 mg/kg/injection, schedule: Q04DX003 (ip), vehicle: water) 213 % of control; (dose: 10.8 mg/kg/injection, schedule: Q04DX002 (ip), vehicle: water) 243 % of control; (dose: 10.8 mg/kg/injection, schedule: Q04DX003 (ip), vehicle: water) 211 % of control and 281 % of control. In addition, the T/C reads like this: (dose: 12.0 mg/kg/injection, schedule: Q04DX003 (ip), vehicle: saline) 211 % of control; (dose: 13.0 mg/kg/injection, schedule: Q04DX002 (ip), vehicle: Klucel (hydroxypropylcellulose) (HPC)) 240 % of control; (dose: 13.0 mg/kg/injection, schedule: Q04DX003 (ip), vehicle: water) 234 % of control; (dose: 16.0 mg/kg/injection, schedule: Q08DX002 (ip), vehicle: saline) 240 % of control; (dose: 17.3 mg/kg/injection, schedule: Q04DX003 (ip), vehicle: clinical formulation) 276 % of control; (dose: 17.3 mg/kg/injection, schedule: Q04DX003 (ip), vehicle: water) 272 % of control. For the same compound, the T/C was 264 % of control (dose: 18.0 mg/kg/injection, schedule: Q04DX002 (ip), vehicle: water); 320 % of control and 576 % of control (dose: 18.0 mg/kg/injection, schedule: Q04DX003 (ip), vehicle: Klucel (hydroxypropylcellulose) (HPC)); 167 % of control (dose: 20.0 mg/kg/injection, schedule: Q04DX002 (ip), vehicle: suspension in saline); 183 % of control and 190 % of control (dose: 20.0 mg/kg/injection, schedule: Q04DX003 (ip), vehicle: saline with Tween-80); 280 % of control (dose: 21.6 mg/kg/injection, schedule: Q04DX002 (ip), vehicle: Klucel (hydroxypropylcellulose) (HPC)); 235 % of control (dose: 21.6 mg/kg/injection, schedule: Q04DX002 (ip), vehicle: water). Moreover, the T/C is, setting by setting: (dose: 21.6 mg/kg/injection, schedule: Q04DX003 (ip), vehicle: water) 398 % of control; (dose: 27.0 mg/kg/injection, schedule: Q04DX003 (ip), vehicle: Klucel (hydroxypropylcellulose) (HPC)) 436 % of control and 567 % of control; (dose: 28.8 mg/kg/injection, schedule: Q04DX003 (ip), vehicle: clinical formulation) 419 % of control; (dose: 28.8 mg/kg/injection, schedule: Q04DX003 (ip), vehicle: water) 304 % of control; (dose: 30.0 mg/kg/injection, schedule: Q04DX002 (ip), vehicle: water) 441 % of control; (dose: 30.0 mg/kg/injection, schedule: Q04DX003 (ip), vehicle: water) 333 % of control and 358 % of control. Further, the T/C runs as follows: (dose: 32.0 mg/kg/injection, schedule: Q08DX002 (ip), vehicle: saline) 285 % of control; (dose: 36.0 mg/kg/injection, schedule: Q04DX002 (ip), vehicle: Klucel (hydroxypropylcellulose) (HPC)) 290 % of control; (dose: 36.0 mg/kg/injection, schedule: Q04DX002 (ip), vehicle: water) 445 % of control; (dose: 36.0 mg/kg/injection, schedule: Q04DX003 (ip), vehicle: water) 416 % of control; (dose: 40.0 mg/kg/injection, schedule: Q04DX002 (ip), vehicle: suspension in saline) 218 % of control; (dose: 40.0 mg/kg/injection, schedule: Q04DX003 (ip), vehicle: Klucel (hydroxypropylcellulose) (HPC)) 436 % of control and 576 % of control. In addition, the T/C (dose: 40.0 mg/kg/injection, schedule: Q04DX003 (ip), vehicle: saline with Tween-80) was 223 % of control and 257 % of control; the T/C (dose: 50.0 mg/kg/injection, schedule: Q04DX002 (ip), vehicle: water) was 372 % of control; the T/C (dose: 60.0 mg/kg/injection, schedule: Q04DX002 (ip), vehicle: water) is 354 % of control; the T/C (dose: 60.0 mg/kg/injection, schedule: Q04DX003 (ip), vehicle: Klucel (hydroxypropylcellulose) (HPC)) was 576 % of control; the T/C (dose: 60.0 mg/kg/injection, schedule: Q04DX003 (ip), vehicle: water) was 416 % of control; the T/C (dose: 64.0 mg/kg/injection, schedule: Q01DX005 (ip), vehicle: saline) is 105 % of control and 86 % of control and 88 % of control. Besides, the T/C (dose: 64.0 mg/kg/injection, schedule: Q08DX002 (ip), vehicle: saline) was 247 % of control; the T/C (dose: 83.3 mg/kg/injection, schedule: Q04DX002 (ip), vehicle: water) is 441 % of control; the T/C (dose: 96.0 mg/kg/injection, schedule: Q01DX001 (ip), vehicle: water) was 238 % of control and 329 % of control; the T/C (dose: 100.0 mg/kg/injection, schedule: Q04DX002 (ip), vehicle: Klucel (hydroxypropylcellulose) (HPC)) was 89 % of control; the T/C (dose: 100.0 mg/kg/injection, schedule: Q04DX002 (ip), vehicle: water) is 445 % of control; the T/C (dose: 128.0 mg/kg/injection, schedule: Q01DX001 (ip), vehicle: saline with Tween-80) was 77 % of control and 89 % of control. In addition, the T/C (dose: 128.0 mg/kg/injection, schedule: Q08DX002 (ip), vehicle: saline) is 98 % of control.

For the compound `O=C(CNC1=NCCN1)Nc1ccc(NC(=O)c2ccc(C(=O)Nc3ccc(NC(=O)CNC4=NCCN4)cc3)cc2)cc1`, the T/C runs as follows: (dose: 50.0 mg/kg/injection, schedule: Q01DX005 (ip), vehicle: saline with Tween-80) 118 % of control and 124 % of control; (dose: 200.0 mg/kg/injection, schedule: Q01DX005 (ip), vehicle: saline with Tween-80) 189 % of control; (dose: 400.0 mg/kg/injection, schedule: Q01DX005 (ip), vehicle: saline with Tween-80) 96 % of control.

For `COc1ccc2nccc(C(C)=O)c2c1`, the T/C (dose: 50.0 mg/kg/injection, schedule: Q01DX005 (ip), vehicle: Klucel (hydroxypropylcellulose) (HPC)) was 100 % of control; the T/C (dose: 100.0 mg/kg/injection, schedule: Q01DX005 (ip), vehicle: Klucel (hydroxypropylcellulose) (HPC)) was 98 % of control; the T/C (dose: 200.0 mg/kg/injection, schedule: Q01DX005 (ip), vehicle: Klucel (hydroxypropylcellulose) (HPC)) was 106 % of control.

In the case of `[NH-]CC(=O)O.[NH-]CC(=O)O.[Pt+2]`, the T/C runs as follows: (dose: 3.13 mg/kg/injection, schedule: Q01DX009 (ip), vehicle: water) 97 % of control; (dose: 6.25 mg/kg/injection, schedule: Q01DX009 (ip), vehicle: distilled water + Tween-80) 119 % of control; (dose: 6.25 mg/kg/injection, schedule: Q01DX009 (ip), vehicle: water) 90 % of control and 112 % of control; (dose: 12.5 mg/kg/injection, schedule: Q01DX009 (ip), vehicle: distilled water + Tween-80) 111 % of control; (dose: 12.5 mg/kg/injection, schedule: Q01DX009 (ip), vehicle: water) 106 % of control and 110 % of control; (dose: 25.0 mg/kg/injection, schedule: Q01DX009 (ip), vehicle: water) 100 % of control and 112 % of control. Moreover, the T/C (dose: 50.0 mg/kg/injection, schedule: Q01DX009 (ip), vehicle: distilled water + Tween-80) is 119 % of control; the T/C (dose: 50.0 mg/kg/injection, schedule: Q01DX009 (ip), vehicle: water) was 97 % of control; the T/C (dose: 100.0 mg/kg/injection, schedule: Q01DX009 (ip), vehicle: distilled water + Tween-80) was 115 % of control; the T/C (dose: 100.0 mg/kg/injection, schedule: Q01DX009 (ip), vehicle: water) was 97 % of control; the T/C (dose: 200.0 mg/kg/injection, schedule: Q01DX009 (ip), vehicle: distilled water + Tween-80) is 98 % of control.
